Experimental data reported in US5453426A, “Sulfur-containing xanthine derivatives as adenosine antagonists” (priority 1994, dated 1995).
Where two headings read alike, the source gives them in different places.

Experiments:
[1] = biological target: T1, A1 adenosine receptors (Rattus norvegicus, UniProt P25099); assay: Inhibition of binding of [3H]N6-phenylisopropyladenosine to A1 adenosine receptors in rat cerebral cortical membranes; details: for Ki (A2)/Ki (A1): ratio of A2 (rat striatum) to A1 (rat cortex) Ki; for fold less potent at A1-receptors: 6-thio analog versus oxygen analog (CPX or DPX, 24); for A1 affinity/potency, in words: relative to the analogs named in the text
T1 construct: A1 adenosine receptors in rat cerebral cortical membranes; from tissue; host or cells: rat cerebral cortex membranes
T1 sequence (P25099 1-326): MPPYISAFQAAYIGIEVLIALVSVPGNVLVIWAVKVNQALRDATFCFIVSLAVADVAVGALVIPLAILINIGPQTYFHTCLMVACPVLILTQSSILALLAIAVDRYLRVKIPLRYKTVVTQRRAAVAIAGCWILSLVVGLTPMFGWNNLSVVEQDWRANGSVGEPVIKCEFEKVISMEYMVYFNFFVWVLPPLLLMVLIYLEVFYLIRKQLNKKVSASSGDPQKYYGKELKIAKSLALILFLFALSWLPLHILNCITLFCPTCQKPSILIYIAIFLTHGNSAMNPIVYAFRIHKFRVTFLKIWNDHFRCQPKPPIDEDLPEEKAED

[2] = biological target: T2, A2 adenosine receptors (Rattus norvegicus, UniProt P30543); assay: Inhibition of binding of [3H]N-ethylcarboxamidoadenosine to A2-adenosine receptors in rat striatal membranes; details: for A2 affinity/potency, in words: relative to the analogs named in the text
Experimental: Affinity at A1 - and A2 -adenosine receptors was measured in competitive binding assays, using as radioligands [^3 H]N^6 -phenylisopropyladenosine^17 (with rat cerebral cortical membranes) and [^3 H]5'-N-ethylcarboxamidoadenosine (with rat striatal membranes),^18 respectively.
N^6 -Cyclopentyladenosine was present at 50 nM to inhibit binding of the ligand at A1 -adenosine receptors. Inhibition of binding by a range of concentrations of xanthines was assessed in triplicate in at least three separate experiments. IC50 -values were converted to Ki-values by the method of Bruns et al,^18 using a conversion factor derived from the affinity of [^3 H]N-ethylcarboxamidoadenosine at A2 receptors and the Cheng-Prusoff equation.^19

[3] = biological target: T2, A2 adenosine receptors; set-up: A2 -adenosine receptors in rat striatal membranes; from tissue; host or cells: rat striatum membranes; details: cited from earlier work
[4] = test system: A1 -adenosine receptors; details: background; cited from earlier work
[5] = test system: cardiac depression; details: background, ref 9b; cited from earlier work
[6] = test system: tracheal relaxation; details: background, ref 9a, cited from earlier work; for cardiac or behavioral stimulation: accompanying tracheal relaxation
[7] = test system: A1 -adenosine receptors; details: ref 10a; cited from earlier work
[8] = rat cortical membranes, [3H]PIA, single determination in triplicate or average of three ± S.E.M., read-out: Ki A1-receptors
[9] = values taken from Bruns et al. (ref 18)
[10] = read-out: Ki A2-receptors, rat striatal membranes, [3H]NECA, single determination in triplicate or average of three ± S.E.M.

T2 sequence (P30543 whole entry): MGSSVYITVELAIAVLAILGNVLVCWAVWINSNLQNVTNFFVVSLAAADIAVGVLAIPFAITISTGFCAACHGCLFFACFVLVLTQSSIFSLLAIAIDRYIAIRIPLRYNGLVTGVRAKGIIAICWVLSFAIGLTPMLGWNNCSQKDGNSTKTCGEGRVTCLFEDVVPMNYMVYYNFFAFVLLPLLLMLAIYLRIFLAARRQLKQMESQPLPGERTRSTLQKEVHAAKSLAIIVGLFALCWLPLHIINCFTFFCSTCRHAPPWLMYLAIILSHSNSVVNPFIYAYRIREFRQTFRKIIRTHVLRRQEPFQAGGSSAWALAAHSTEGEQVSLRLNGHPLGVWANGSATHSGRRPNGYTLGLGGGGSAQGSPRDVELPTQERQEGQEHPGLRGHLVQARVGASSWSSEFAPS

| SMILES | Ki [1, 8] [nM] | Ki (A2)/Ki (A1) [1] | Ki [2] [nM] | also measured |
| --- | --- | --- | --- | --- |
| Cn1c(=O)c2[nH]c(-c3ccco3)nc2n(C)c1=O [Compound 15, reference compound] |  | 7.94 |  | Ki [3, 9]: 2780 nM |
| Cn1c(=O)c2[nH]c(-c3ccsc3)nc2n(C)c1=O [Compound 18] | 152 ± 27 | 5.53 | 841 ± 109 | A2 affinity/potency, in words [2]: Preference for 3-thienyl derivatives was evident particularly at the A2 -subtype |
| CCCn1c(=O)c2[nH]c(-c3ccc(OCC(=O)O)cc3)nc2n(CCC)c1=O [Compound 27] | 58 ± 3 | 37.8 |  | Ki [2, 10]: 2200 nM |
| CCCn1c(=O)c2[nH]c(-c3ccc(OCC(=O)OCC)cc3)nc2n(CCC)c1=O [Compound 29] | 42 ± 3 | > 238 | > 10000 |  |
| CCCn1c(=O)c2[nH]c(C3CCCC3)nc2n(CCC)c1=O [Compound 2b, 8-cyclopentyl-1,3-dipropylxanthine] |  |  |  | potency in binding at A1-adenosine receptors versus theophylline [4]: more than four orders of magnitude more potent than theophylline |
| CCCn1c(=O)c2[nH]c(-c3ccc(OCC(=O)NCCN(C)C)cc3)nc2n(CCC)c1=O [Compound 34] |  | 1.8 | 5.03 ± 0.54 |  |
| CCCn1c(=O)c2[nH]c(-c3ccsc3)nc2n(CCC)c1=O [Compound 20] | 10 ± 0.03 | 12.1 | 121 ± 18.2 | A2 affinity/potency, in words [2]: Preference for 3-thienyl derivatives was evident particularly at the A2 -subtype |
| CCCn1c(=O)c2[nH]c(-c3cccs3)nc2n(CCC)c1=O [Compound 19] | 16.1 ± 1.96 | 23.6 | 381 ± 27.7 |  |
| CCCn1c(=O)c2[nH]c(-c3ccc(OCC(=O)O)cc3)nc2n(CCC)c1=S [Compound 28, 8-(4-(carboxymethyloxy)phenyl)-1,3-dipropyl-2-thioxanthine] | 53.8 ± 7.1 | 5.86 | 315 ± 60.8 | enhancement of potency at A2-receptors by the 2-thio substitution ([2]; 28 versus oxygen analog 27): 7 fold |
| CCCn1c(=O)c2[nH]c(C3CCCC3)nc2n(CCC)c1=S [Compound 14] | 0.655 ± 0.058 | 479 | 314 ± 62 | A1-selectivity, in words ([1]; A1 versus A2 binding, relative to oxygen analogs): a greater margin of A1 -selectivity; A1 affinity/potency, in words [1]: the A1 affinity was enhanced by the thio substitution |
| CCCn1c(=O)c2[nH]c(-c3ccc(OCC(=O)N(C)CCN(C)C)cc3)nc2n(CCC)c1=S [Compound 37, (8-[2-Dimethylaminoethyl[N-methylamino[carbonyl[methyl[oxyphenyl]]]]]-2-thio-1,3-dipropylxanthine)] | 2.57 ± 0.67 |  | 24.5 ± 8.4 |  |
| Cn1c(=S)c2[nH]cnc2n(C)c1=O [6-thiotheophylline] |  |  |  | cardiac effect [5]: cause cardiac depression rather than stimulation; cardiac or behavioral stimulation [6]: without cardiac or behavioral stimulation; tracheal relaxation [6]: induce tracheal relaxation |
| CCCn1c(=O)c2[nH]c(-c3ccc(OCC(=O)NCCNC(=O)[C@H](N)CCCCNC(=O)OCc4ccccc4)cc3)nc2n(CCC)c1=O [Compound 40] |  | 30 | 191 ± 13 |  |
| CCCn1c(=O)c2[nH]c(-c3ccc(OCC(=O)NCCN(C)C)cc3)nc2n(CCC)c1=S [Compound 35] | 2.55 ± 0.6 | 11 | 27.9 ± 7.5 |  |
| Cn1c(=S)c2c(ncn2C)n(C)c1=O [6-thiocaffeine] |  |  |  | cardiac effect [5]: cause cardiac depression rather than stimulation; cardiac or behavioral stimulation [6]: without cardiac or behavioral stimulation; tracheal relaxation [6]: induce tracheal relaxation |
| Cn1c(=O)c2[nH]c(-c3cccs3)nc2n(C)c1=O [Compound 17] | 233 ± 48.6 | 6.97 | 1630 |  |
| CCCn1c(=O)c2[nH]c(-c3ccc(OCC(=O)NCCN)cc3)nc2n(CCC)c1=O [Compound 3, 8-(4-(2-amino-ethylaminocarbonylmethyloxy)phenyl)-1,3-dipropylxanthine] |  |  |  | potency in binding at A1-adenosine receptors versus theophylline [4]: more than four orders of magnitude more potent than theophylline |
| CCCn1c(=O)c2[nH]c(-c3ccc(OCC(=O)NCCNC(=O)[C@H](N)CCCCNC(=O)OCc4ccccc4)cc3)nc2n(CCC)c1=S [Compound 41] |  | 36 | 322 ± 17 |  |
| CCCn1c(=O)c2[nH]c(-c3ccc(OCC(=O)NCCNC)cc3)nc2n(CCC)c1=S [Compound 33] | 2.4 ± 0.28 |  |  |  |
| CCCn1c(=O)c2[nH]c(-c3ccc(OCC(=O)NCCNC(=O)[C@@H](CCCCNC(=O)OCc4ccccc4)NC(=O)OC(C)(C)C)cc3)nc2n(CCC)c1=S [Compound 39] |  | 10 | 870 |  |
| CCCn1c(=O)c2[nH]c(-c3ccc(OCC(=O)OCC)cc3)nc2n(CCC)c1=S [Compound 30] | 6.78 ± 0.64 | > 740 | > 5000 |  |
| CCCn1c(=O)c2nc(-c3ccc(OCC(=O)NCCNC(=O)CCCCCCC(=O)ON4C(=O)CCC4=O)cc3)[nH]c2n(CCC)c1=S [Compound 45, N-Succinimidyl 8-[2-[4-(6-Carboxy-n-hexyl)carbonylaminoethyl[amino[carbonyl[methyloxyphenyl]]]]]-1,3-dipropyl-2-thioxanthine] |  |  |  | Ki [1]: 33.5 nM |
| Cn1c(=O)c2nc(-c3ccoc3)[nH]c2n(C)c1=O [Compound 16, reference compound] |  | 13.6 |  | Ki [3, 9]: 984 ± 70 nM |
| Cn1c(=O)c2nc(-c3cccs3)[nH]c2n(C)c1=S [Compound 21] | 221 ± 43.3 | 7.87 |  | Ki [2, 10]: 1740 nM |
| CCCn1c(=O)c2[nH]c(-c3ccc(OCC(=O)NCCN)cc3)nc2n(CCC)c1=S [Compound 31] | 2.69 ± 0.77 | 9.8 | 26.3 ± 1.76 | A1 affinity/potency, in words [1]: with less affinity at A1 -receptors than the corresponding oxygen analog; A2 affinity/potency, in words [2]: enhanced over the oxygen analog |
| Cn1c(=O)c2[nH]c(C3CCCC3)nc2n(C)c1=S [Compound 13] | 8 | 170 | 1390 |  |

Further lines, with some results ahead:

| Ki [1, 8] [nM] | Ki (A2)/Ki (A1) [1] | Ki [2] [nM] | SMILES | also measured |
| --- | --- | --- | --- | --- |
| 202 ± 26 | 44.4 | 8980 | Cn1c(=S)c2[nH]c(C3CCCC3)nc2n(C)c1=O [Compound 54] |  |
| 40.5 ± 6.6 | 285 | 11500 | Cn1c(=S)c2[nH]c(C3CCCC3)nc2n(C)c1=S [Compound 52] |  |
| 15.5 ± 1.5 | 217 | 3360 | CCCn1c(=S)c2[nH]c(C3CCCC3)nc2n(CCC)c1=O [Compound 55, 8-cyclopentyl-1,3-dipropyl-6-thioxanthine] | fold less potent at A1-receptors [1]: 17 fold |
| 0.87 ± 0.09 | 210 |  | CCCn1c(=O)c2[nH]c(-c3ccc(OCC(=O)NCCNC(=O)[C@H](N)CCCCN)cc3)nc2n(CCC)c1=O [Compound 42] | Ki [2, 10]: 180 nM |
| 7.44 ± 0.98 | 85 |  | CCCn1c(=O)c2[nH]c(-c3ccc(OCC(=O)NCCNC(=O)CCCCCCC(=O)NCc4cccs4)cc3)nc2n(CCC)c1=O [Compound 49] | Ki [2, 10]: 630 ± 160 nM |
| 4.87 ± 0.82 | 572 | 2780 | CCCn1c(=S)c2[nH]c(C3CCCC3)nc2n(CCC)c1=S [Compound 53] | A1 affinity/potency, in words [1]: intermediate in potency between the corresponding 2-thio and 6-thio analogs; A2 affinity/potency, in words [2]: intermediate in potency between the corresponding 2-thio and 6-thio analogs |
|  | 3.6 | 46.8 ± 9.4 | CCCn1c(=O)c2[nH]c(-c3ccc(OCC(=O)NCCNC(=O)[C@H](N)CCCCN)cc3)nc2n(CCC)c1=S [Compound 43] |  |
| 1010 | 3.47 | 3510 | CCn1c(=S)c2[nH]c(-c3ccccc3)nc2n(CC)c1=O [Compound 57] | fold less potent at A1-receptors [1]: 23 fold; fold less potent at A2-receptors ([2]; 6-thio analog 57 versus DPX, 24): 12 fold |
| 1380 | 8.18 | 11300 | Cn1c(=S)c2[nH]c(-c3ccccc3)nc2n(C)c1=O [Compound 56] |  |
|  | 56 |  | CCCn1c(=O)c2[nH]c(-c3ccc(OCC(=O)NCCNC(=O)CCCCCCC(=O)ON4C(=O)CCC4=O)cc3)nc2n(CCC)c1=O [Compound 44] | irreversible inhibitor of A1-adenosine receptors at concentrations [7]: greater than 50 nM; Ki ([3]; values taken from Jacobson et al. (ref 10)): 207 ± 57 nM |
| 18.3 ± 3 | 8.1 | 147 ± 5 | CCCn1c(=O)c2[nH]c(-c3ccc(OCC(=O)NCCNC(=O)Cc4cccs4)cc3)nc2n(CCC)c1=O [Compound 46] |  |
| 11.3 ± 1.5 | 10.3 | 116 ± 25 | CCCn1c(=O)c2[nH]c(-c3ccc(OCC(=O)NCCNC(=O)Cc4ccc(I)s4)cc3)nc2n(CCC)c1=O [Compound 48] |  |
